Target: GST-tagged truncated human mutant G2019S LRRK2 (Homo sapiens (Human), UniProt Q5S007, G2019S)
Test: LRRK2 Km ATP LanthaScreen Assay
Type: biochemical
Conditions: 134 μM ATP (Km ATP); fluorescein-labeled LRRKtide substrate; mean IC50 values
Method: Unless otherwise noted, all LRRK2 IC50 data presented in tables refers to the LRRK2 Km ATP LanthaScreen™ Assay that is described in the Biological Assay section.
Biological Assay: LRRK2 Km ATP LanthaScreen™ Assay
The LRRK2 kinase activity reported herein as IC50 values was determined with LanthaScreen™ technology from Life Technologies Corporation (Carlsbad, Calif.) using GST-tagged truncated human mutant G2019S LRRK2 in the presence of the fluorescein-labeled peptide substrate LRRKtide, also from Life Technologies. The data presented for the Km ATP LanthaScreen™ Assay represents mean IC50 values based on several test results and may have reasonable deviations depending on the specific conditions and reagents used. Assays were performed in the presence of 134 μM ATP (Km ATP). Upon completion, the assay was stopped and phosphorylated substrate detected with a terbium (Tb)-labeled anti-pERM antibody (cat. no. PV4898). The compound dose response was prepared by diluting a 10 mM stock of compound to a maximum concentration of 9.99 μM in 100% dimethylsulfoxide followed by custom fold serial dilution in dimethylsulfoxide nine times. Twenty nanoliters of each dilution was spotted via a Labcyte Echo onto a 384-well black-sided plate (Corning 3575) followed by 15 μl of a 1.25 nM enzyme solution in 1× assay buffer (50 mM Tris pH 8.5, 10 mM MgCl2, 0.01% Brij-35, 1 mM EGTA, 2 mM dithiothreitol, 0.05 mM sodium orthovanadate) Following a 15-minute incubation at room temperature, the kinase reaction was started with the addition of 5 μl of 400 nM fluorescein-labeled LRRKtide peptide substrate and 134 μM ATP solution in 1× assay buffer. The reaction was allowed to progress at ambient temperature for 90 minutes. The reaction was then stopped by the addition of 20 μl of TR-FRET Dilution Buffer (Life Technologies, Carlsbad, Calif.) containing 2 nM Tb-labeled anti-phospho LRRKtide antibody and 10 mM EDTA (Life Technologies, Carlsbad, Calif.). After an incubation of 1 hour at room temperature, the plate was read on an EnVision multimode plate reader (Perkin Elmer, Waltham, Mass.) with an excitation wavelength of 337 nm (Laser) and a reading emission at both 520 and 495 nm. Compound IC50s were interpolated from nonlinear regression best fits of the log of the final compound concentration, plotted as a function of the 520/495-nm emission ratio using Activity base. Abase uses a 4 parameter (4P) logistic fit based on the Levenberg-Marquardt algorithm.

GST-tagged truncated human mutant G2019S LRRK2, sequence (Q5S007 970-2527 G2019S): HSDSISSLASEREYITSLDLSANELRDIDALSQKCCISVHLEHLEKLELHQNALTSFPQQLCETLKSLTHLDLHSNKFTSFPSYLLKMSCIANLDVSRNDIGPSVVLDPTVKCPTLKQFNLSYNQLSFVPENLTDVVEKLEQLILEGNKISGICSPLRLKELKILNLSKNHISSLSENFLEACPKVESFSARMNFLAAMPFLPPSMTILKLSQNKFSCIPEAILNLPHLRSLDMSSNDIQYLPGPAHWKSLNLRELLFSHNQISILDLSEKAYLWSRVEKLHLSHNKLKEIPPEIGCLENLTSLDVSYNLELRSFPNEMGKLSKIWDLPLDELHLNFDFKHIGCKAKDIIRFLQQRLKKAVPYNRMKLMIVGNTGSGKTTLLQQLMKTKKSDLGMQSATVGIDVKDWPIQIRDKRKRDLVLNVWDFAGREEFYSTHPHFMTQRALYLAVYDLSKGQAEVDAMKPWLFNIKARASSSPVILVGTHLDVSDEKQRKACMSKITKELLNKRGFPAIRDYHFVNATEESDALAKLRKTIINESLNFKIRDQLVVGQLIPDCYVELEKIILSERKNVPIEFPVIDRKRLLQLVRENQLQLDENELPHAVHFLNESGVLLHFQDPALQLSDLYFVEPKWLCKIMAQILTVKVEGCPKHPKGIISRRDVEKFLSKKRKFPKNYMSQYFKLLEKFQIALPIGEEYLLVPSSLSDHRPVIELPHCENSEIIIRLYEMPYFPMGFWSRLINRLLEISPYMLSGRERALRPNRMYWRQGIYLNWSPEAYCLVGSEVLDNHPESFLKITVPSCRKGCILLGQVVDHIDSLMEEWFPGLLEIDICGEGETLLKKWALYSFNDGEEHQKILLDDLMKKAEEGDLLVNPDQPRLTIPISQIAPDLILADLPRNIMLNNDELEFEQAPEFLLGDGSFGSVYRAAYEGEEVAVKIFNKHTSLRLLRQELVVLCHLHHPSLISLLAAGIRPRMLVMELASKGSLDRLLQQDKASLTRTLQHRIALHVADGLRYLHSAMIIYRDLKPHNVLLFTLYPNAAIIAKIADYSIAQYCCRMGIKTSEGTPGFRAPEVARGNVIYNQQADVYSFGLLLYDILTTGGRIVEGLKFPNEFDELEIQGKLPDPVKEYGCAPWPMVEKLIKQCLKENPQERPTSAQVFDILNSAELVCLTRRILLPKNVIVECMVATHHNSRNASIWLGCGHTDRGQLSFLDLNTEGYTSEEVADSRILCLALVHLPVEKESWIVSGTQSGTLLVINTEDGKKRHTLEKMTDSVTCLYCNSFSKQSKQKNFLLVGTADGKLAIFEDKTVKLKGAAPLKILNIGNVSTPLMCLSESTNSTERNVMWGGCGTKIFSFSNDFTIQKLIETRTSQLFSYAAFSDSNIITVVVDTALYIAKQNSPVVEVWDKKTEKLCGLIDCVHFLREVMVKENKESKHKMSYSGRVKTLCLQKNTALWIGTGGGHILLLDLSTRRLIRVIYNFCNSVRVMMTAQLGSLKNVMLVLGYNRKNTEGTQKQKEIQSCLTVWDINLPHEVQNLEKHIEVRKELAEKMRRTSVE

Structure (SMILES) | IC50 [nM]
CN1CCN(c2cc(-n3ncc4ccc(C5(C#N)CC6(CC6)C5)cc43)ncn2)CC1CO (single isomer, unassigned) [Example 15, 5-(1-(6-(3-(hydroxymethyl)-4-methylpiperazin-1-yl)pyrimidin-4-yl)-1H-indazol-6-yl)spiro[2.3]hexane-5-carbonitrile] | 3.8
CN1CCN(c2cc(-n3ncc4ccc(C5(C#N)CC6(CC6)C5)cc43)ncn2)CC1CO (single isomer, unassigned) [Example 16, 5-(1-(6-(3-(hydroxymethyl)-4-methylpiperazin-1-yl)pyrimidin-4-yl)-1H-indazol-6-yl)spiro[2.3]hexane-5-carbonitrile] | 1.2
CC(C)(O)C1CN(c2cc(-n3ncc4ccc(C5(C#N)CC6(CC6)C5)cc43)ncn2)CC1F (single isomer, unassigned) [Example 22, 5-(1-(6-(3-fluoro-4-(2-hydroxypropan-2-yl)pyrrolidin-1-yl)pyrimidin-4-yl)-1H-indazol-6-yl)spiro[2.3]hexane-5-carbonitrile] | 3.7
CC(C)(O)C1CN(c2cc(-n3ncc4ccc(C5(C#N)CC6(CC6)C5)cc43)ncn2)CC1F (single isomer, unassigned) [Example 23, 5-(1-(6-(3-fluoro-4-(2-hydroxypropan-2-yl)pyrrolidin-1-yl)pyrimidin-4-yl)-1H-indazol-6-yl)spiro[2.3]hexane-5-carbonitrile] | 4.6
C[C@H]1CN(c2cc(-n3ncc4ccc(C5(C#N)CC6(CC6)C5)cc43)ncn2)CCN1C1CCOC1 (single isomer, unassigned) [Example 34] | 0.9
C[C@H]1CN(c2cc(-n3ncc4ccc(C5(C#N)CC6(CC6)C5)cc43)ncn2)CCN1C1CCOC1 (single isomer, unassigned) [Example 35] | 3.5
CC1C(C(C)(C)O)CCN1c1cc(-n2ncc3ccc(C4(C#N)CC5(CC5)C4)cc32)ncn1 (single isomer, unassigned) [Example 36, 5-(1-(6-(3-(2-hydroxypropan-2-yl)-2-methylpyrrolidin-1-yl)pyrimidin-4-yl)-1H-indazol-6-yl)spiro[2.3]hexane-5-carbonitrile] | 3.2
CC1C(C(C)(C)O)CCN1c1cc(-n2ncc3ccc(C4(C#N)CC5(CC5)C4)cc32)ncn1 (single isomer, unassigned) [Example 37, 5-(1-(6-(3-(2-hydroxypropan-2-yl)-2-methylpyrrolidin-1-yl)pyrimidin-4-yl)-1H-indazol-6-yl)spiro[2.3]hexane-5-carbonitrile] | 138
CC1C(C(C)(C)O)CCN1c1cc(-n2ncc3ccc(C4(C#N)CC5(CC5)C4)cc32)ncn1 (single isomer, unassigned) [Example 38, 5-(1-(6-(3-(2-hydroxypropan-2-yl)-2-methylpyrrolidin-1-yl)pyrimidin-4-yl)-1H-indazol-6-yl)spiro[2.3]hexane-5-carbonitrile] | 59
CC1C(C(C)(C)O)CCN1c1cc(-n2ncc3ccc(C4(C#N)CC5(CC5)C4)cc32)ncn1 (single isomer, unassigned) [Example 39, 5-(1-(6-(3-(2-hydroxypropan-2-yl)-2-methylpyrrolidin-1-yl)pyrimidin-4-yl)-1H-indazol-6-yl)spiro[2.3]hexane-5-carbonitrile] | 1.2
CN1CCOC2CN(c3cc(-n4ncc5ccc(C6(C#N)CC7(CC7)C6)cc54)ncn3)CC21 (single isomer, unassigned) [Example 40, 5-(1-(6-(4-methylhexahydropyrrolo[3,4-b][1,4]oxazin-6(2H)-yl)pyrimidin-4-yl)-1H-indazol-6-yl)spiro[2.3]hexane-5-carbonitrile] | 0.9
CN1CCOC2CN(c3cc(-n4ncc5ccc(C6(C#N)CC7(CC7)C6)cc54)ncn3)CC21 (single isomer, unassigned) [Example 41] | 1.2
CC1CC12CC(C#N)(c1ccc3cnn(-c4cc(N5CCN6CCOC[C@@H]6C5)ncn4)c3c1)C2 (single isomer, unassigned) [Example 50] | 4.4
CC1CC12CC(C#N)(c1ccc3cnn(-c4cc(N5CCN6CCOC[C@@H]6C5)ncn4)c3c1)C2 (single isomer, unassigned) [Example 51] | 9.8
CC1CC12CC(C#N)(c1ccc3cnn(-c4cc(N5CCN6CCOC[C@@H]6C5)ncn4)c3c1)C2 (single isomer, unassigned) [Example 52] | 2.4
CC1C2(CC2)CC1(C#N)c1ccc2cnn(-c3cc(N4CCN5CCOC[C@@H]5C4)ncn3)c2c1 (single isomer, unassigned) [Example 53] | 7.9
CC1C2(CC2)CC1(C#N)c1ccc2cnn(-c3cc(N4CCN5CCOC[C@@H]5C4)ncn3)c2c1 (single isomer, unassigned) [Example 54] | 1.7
CC1C2(CC2)CC1(C#N)c1ccc2cnn(-c3cc(N4CCN5CCOC[C@@H]5C4)ncn3)c2c1 (single isomer, unassigned) [Example 55] | 34
CC1C2(CC2)CC1(C#N)c1ccc2cnn(-c3cc(N4CCN5CCOC[C@@H]5C4)ncn3)c2c1 (single isomer, unassigned) [Example 56] | 3
N#CC1(c2ccc3cnn(-c4cc(N5CC[C@@H](O)[C@@H](F)C5)ncn4)c3c2)CC2(CC2)C1 [Example 1, 5-(1-(6-((3S,4R)-3-fluoro-4-hydroxypiperidin-1-yl)pyrimidin-4-yl)-1H-indazol-6-yl)spiro[2.3]hexane-5-carbonitrile] | 4.4
Cc1nc(N2CC[C@H](O)[C@@H](F)C2)cc(-n2ncc3ccc(C4(C#N)CC5(CC5)C4)cc32)n1 [Example 2, 5-(1-(6-((3S,4S)-3-fluoro-4-hydroxypiperidin-1-yl)-2-methylpyrimidin-4-yl)-1H-indazol-6-yl)spiro[2.3]hexane-5-carbonitrile] | 5.1
Cc1nc(N2CC[C@H](O)[C@H](F)C2)cc(-n2ncc3ccc(C4(C#N)CC5(CC5)C4)cc32)n1 [Example 3, 5-(1-(6-((3R,4S)-3-fluoro-4-hydroxypiperidin-1-yl)-2-methylpyrimidin-4-yl)-1H-indazol-6-yl)spiro[2.3]hexane-5-carbonitrile] | 18
Cc1nc(N2CC[C@@H](O)[C@@H](F)C2)cc(-n2ncc3ccc(C4(C#N)CC5(CC5)C4)cc32)n1 [Example 4, 5-(1-(6-((3S,4R)-3-fluoro-4-hydroxypiperidin-1-yl)-2-methylpyrimidin-4-yl)-1H-indazol-6-yl)spiro[2.3]hexane-5-carbonitrile] | 7.4
Cc1nc(N2CC3(C(C)(C)O)CC2C3)cc(-n2ncc3ccc(C4(C#N)CC5(CC5)C4)cc32)n1 [Example 5, 5-(1-(6-(4-(2-hydroxypropan-2-yl)-2-azabicyclo[2.1.1]hexan-2-yl)-2-methylpyrimidin-4-yl)-1H-indazol-6-yl)spiro[2.3]hexane-5-carbonitrile] | 12.3
N#CC1(c2ccc3cnn(-c4cc(N5CC[C@H](O)[C@@H](F)C5)ncn4)c3c2)CC2(CC2)C1 [Example 6, 5-(1-(6-((3S,4S)-3-fluoro-4-hydroxypiperidin-1-yl)pyrimidin-4-yl)-1H-indazol-6-yl)spiro[2.3]hexane-5-carbonitrile] | 6.2
N#CC1(c2ccc3cnn(-c4cc(N5CC6(CO)CC5C6)ncn4)c3c2)CC2(CC2)C1 [Example 7, 5-(1-(6-(4-(hydroxymethyl)-2-azabicyclo[2.1.1]hexan-2-yl)pyrimidin-4-yl)-1H-indazol-6-yl)spiro[2.3]hexane-5-carbonitrile] | 1.5

— US11174248B2, “Indazolyl-spiro[2.3]hexane-carbonitrile derivatives as LRRK2 inhibitors, pharmaceutical compositions, and uses thereof” (Merck Sharp & Dohme Corp., priority 2017, dated 2021)
